Data published in US8709381B2, “Compound containing a carbon or an oxygen isotope, preparation and use thereof, and composition comprising thereof” (Beijing Top Grade Medical Equipment Co., Ltd, priority 2010, dated 2014).

Tests used:
porphyrin synthesis = details: in vivo
Description: Example 4 relates to a study of imaging of porphyrin synthesis in-vivo.
Porphyrin plays an important role in an organism. It is important for the study of physiological conditions, biochemical condition, and diseases to know the porphyrin synthesis in vivo. 5-ALA is a precursor of the porphyrin synthesis. After it is irradiated by photons of 50 MV with a dosage of 30 Gy (gray), a ^12C atom of the 5-ALA molecule is converted into an ^11C positron nuclide and a ^16O atom therein is converted into an ^15O positron nuclide.

SD rats = test: distribution after tail vein injection of 11C/15O-labeled adriamycin; format: in vivo, rat; details: labeled with 11C and 15O
Experimental: (§1) The details of the procedure of the present example are as follow: 3 mg of adriamycin is irradiated by 50 MV of photons with a dosage of 30 Gy (gray). […] A ^12C atom of the adriamycin molecule is converted into a ^11C positron nuclide and an ^16O atom therein is converted into a ^15O positron nuclide.

[1] = fluorescence analysis of structure after photon irradiation; format: physicochemical; details: 3 mg irradiated by 50 MV photons, 30 Gy
Experimental: as §1

SMILES | main organ of porphyrin synthesis (porphyrin synthesis) | site of accumulation in vivo (SD rats) | structure after the irradiation (fluorescence analysis) [1]
NCC(=O)CCC(=O)O [5-ALA] | liver is the main organ of porphyrin synthesis |  | 
COc1cccc2c1C(=O)c1c(O)c3c(c(O)c1C2=O)C[C@@](O)(C(=O)CO)C[C@@H]3O[C@H]1C[C@H](N)[C@H](O)[C@H](C)O1 [adriamycin] |  | accumulates at the heart | no change in the structure
